Results taken from PMC6979384, “Characterization of the plant homeodomain (PHD) reader family for their histone tail interactions” (Epigenetics & Chromatin, 2020).

Experiments:
Assay in all cases: Histone peptide microarray
Assay type in all cases: binding, human
Conditions in all cases: sheet "Array Heatmap"
[1] = test system: PHF21A
Method in brief: (§1)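 Recombinant GST-PHD protein at 0.5 μM; 293-member modified histone peptide array; signals averaged from four repeats ± SD.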

[2] = test system: ING4
Method in brief: as §1

[3] = test system: ING5
Method in brief: as §1

[4] = test system: ING2
Method in brief: as §1

[5] = test system: BPTF (PB)
Method in brief: as §1

[6] = test system: TRIM66 (PB)
Method in brief: as §1

[7] = test system: BAZ2B
Method in brief: as §1

[8] = test system: KDM7A
Method in brief: as §1

[9] = test system: AIRE (PP)
Method in brief: as §1

[10] = test system: DPF2 (PPC2W2)
Method in brief: as §1

[11] = test system: PHF13
Method in brief: as §1

[12] = test system: KDM4C (TTP)
Method in brief: as §1

[13] = test system: RAG2
Method in brief: as §1

[14] = test system: KDM5B (3)
Method in brief: as §1

[15] = test system: ING1
Method in brief: as §1

[16] = test system: SP140L
Method in brief: as §1

[17] = test system: MORC3 (CW)
Method in brief: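 Binding read as mean relative signal from 4 replicates; microarray held 293 synthetic histone peptides with single or combinatorial PTMs. Each GST-tagged PHD reader was applied at 0.5 μM using the optimized Petell protocol.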

[18] = test system: KDM5A (1)
Method in brief: as §1

[19] = test system: KDM5B (1)
Method in brief: as §1

[20] = test system: KDM5A (3)
Method in brief: as §1

[21] = test system: CHD5 (PPCC)
Method in brief: as §1

[22] = test system: PHF8
Method in brief: as §1

[23] = test system: CHD4 (PPCC)
Method in brief: as §1

[24] = test system: DIDO1
Method in brief: as §1

[25] = test system: CHD5 (PCC)
Method in brief: as §1

[26] = test system: PHF2
Method in brief: as §1

[27] = test system: MLL5
Method in brief: as §1

[28] = test system: TAF3
Method in brief: as §1

[29] = test system: PHF23
Method in brief: as §1

[30] = test system: PHRF1 (RP)
Method in brief: as §1

[31] = test system: ING3
Method in brief: as §1

[32] = GST-tagged PHF21A, arrays performed twice, total replicate number n = 4
[33] = GST-tagged ING4, arrays performed twice, total replicate number n = 4
[34] = GST-tagged ING5, arrays performed twice, total replicate number n = 4
[35] = GST-tagged ING2, arrays performed twice, total replicate number n = 4
[36] = GST-tagged BPTF (PB), arrays performed twice, total replicate number n = 4
[37] = GST-tagged TRIM66 (PB), arrays performed twice, total replicate number n = 4
[38] = GST-tagged BAZ2B, arrays performed twice, total replicate number n = 4
[39] = GST-tagged KDM7A, arrays performed twice, total replicate number n = 4
[40] = GST-tagged AIRE (PP), arrays performed twice, total replicate number n = 4
[41] = GST-tagged DPF2 (PPC2W2), arrays performed twice, total replicate number n = 4
[42] = GST-tagged PHF13, arrays performed twice, total replicate number n = 4
[43] = GST-tagged KDM4C (TTP), arrays performed twice, total replicate number n = 4
[44] = GST-tagged RAG2, arrays performed twice, total replicate number n = 4
[45] = GST-tagged KDM5B (3), arrays performed twice, total replicate number n = 4
[46] = GST-tagged ING1, arrays performed twice, total replicate number n = 4
[47] = GST-tagged SP140L, arrays performed twice, total replicate number n = 4
[48] = GST-tagged MORC3 (CW), arrays performed twice, total replicate number n = 4
[49] = GST-tagged KDM5A (1), arrays performed twice, total replicate number n = 4
[50] = GST-tagged KDM5B (1), arrays performed twice, total replicate number n = 4
[51] = GST-tagged KDM5A (3), arrays performed twice, total replicate number n = 4
[52] = GST-tagged CHD5 (PPCC), arrays performed twice, total replicate number n = 4
[53] = GST-tagged PHF8, arrays performed twice, total replicate number n = 4
[54] = GST-tagged CHD4 (PPCC), arrays performed twice, total replicate number n = 4
[55] = GST-tagged DIDO1, arrays performed twice, total replicate number n = 4
[56] = GST-tagged CHD5 (PCC), arrays performed twice, total replicate number n = 4
[57] = GST-tagged PHF2, arrays performed twice, total replicate number n = 4
[58] = GST-tagged MLL5, arrays performed twice, total replicate number n = 4
[59] = GST-tagged TAF3, arrays performed twice, total replicate number n = 4
[60] = GST-tagged PHF23, arrays performed twice, total replicate number n = 4
[61] = GST-tagged PHRF1 (RP), arrays performed twice, total replicate number n = 4
[62] = GST-tagged ING3, arrays performed twice, total replicate number n = 4
[63] = GST-tagged reader, histone peptide array, total n = 4

H3 (1-20) N-ac: H3 1-20
Array Heatmap signal, PHF21A [1, 32]: 0.4724 | Array Heatmap signal, ING4 [2, 33]: 0.4519 | Array Heatmap signal, ING5 [3, 34]: 0.3522 | Array Heatmap signal, ING2 [4, 35]: 0.6126 | Array Heatmap signal, BPTF (PB) [5, 36]: 0.3531 | Array Heatmap signal, TRIM66 (PB) [6, 37]: 0.7386 | Array Heatmap signal, BAZ2B [7, 38]: 0.4663 | Array Heatmap signal, KDM7A [8, 39]: 0.3283 | Array Heatmap signal, AIRE (PP) [9, 40]: 0.5035 | Array Heatmap signal, DPF2 (PPC2W2) [10, 41]: 0.6951 | Array Heatmap signal, PHF13 [11, 42]: 0.6234 | Array Heatmap signal, KDM4C (TTP) [12, 43]: 0.4656 | Array Heatmap signal, RAG2 [13, 44]: 0.259 | Array Heatmap signal, KDM5B (3) [14, 45]: 0.5329 | Array Heatmap signal, ING1 [15, 46]: 0.5284 | Array Heatmap signal, SP140L [16, 47]: 0.3813 | Array Heatmap signal, MORC3 (CW) [17, 48]: 0.4955 | Array Heatmap signal, KDM5A (1) [18, 49]: 0.4705 | Array Heatmap signal, KDM5B (1) [19, 50]: 0.6502 | Array Heatmap signal, KDM5A (3) [20, 51]: 0.5353 | Array Heatmap signal, CHD5 (PPCC) [21, 52]: 0.5483 | Array Heatmap signal, PHF8 [22, 53]: 0.365 | Array Heatmap signal, CHD4 (PPCC) [23, 54]: 0.5805 | Array Heatmap signal, DIDO1 [24, 55]: 0.6386 | Array Heatmap signal, CHD5 (PCC) [25, 56]: 0.8196 | Array Heatmap signal, PHF2 [26, 57]: 0.4904 | Array Heatmap signal, MLL5 [27, 58]: 0.5714 | Array Heatmap signal, TAF3 [28, 59]: 0.3122 | Array Heatmap signal, PHF23 [29, 60]: 0.532 | Array Heatmap signal, PHRF1 (RP) [30, 61]: 0.6182 | Array Heatmap signal, ING3 [31, 62]: 0.4681

H3 (1-25): H3 1-25
Array Heatmap signal, PHF21A [1, 63]: 0.4429 | Array Heatmap signal, ING4 [2, 63]: 0.4369 | Array Heatmap signal, ING5 [3, 63]: 0.3412 | Array Heatmap signal, ING2 [4, 63]: 0.6234 | Array Heatmap signal, BPTF (PB) [5, 63]: 0.3452 | Array Heatmap signal, TRIM66 (PB) [6, 63]: 0.9221 | Array Heatmap signal, BAZ2B [7, 63]: 0.4554 | Array Heatmap signal, KDM7A [8, 63]: 0.3768 | Array Heatmap signal, AIRE (PP) [9, 63]: 0.5222 | Array Heatmap signal, DPF2 (PPC2W2) [10, 63]: 0.7357 | Array Heatmap signal, PHF13 [11, 63]: 0.6012 | Array Heatmap signal, KDM4C (TTP) [12, 63]: 0.4415 | Array Heatmap signal, RAG2 [13, 63]: 0.2539 | Array Heatmap signal, KDM5B (3) [14, 63]: 0.5183 | Array Heatmap signal, ING1 [15, 63]: 0.5226 | Array Heatmap signal, SP140L [16, 63]: 0.342 | Array Heatmap signal, MORC3 (CW) [17, 63]: 0.6357 | Array Heatmap signal, KDM5A (1) [18, 63]: 0.4713 | Array Heatmap signal, KDM5B (1) [19, 63]: 0.6949 | Array Heatmap signal, KDM5A (3) [20, 63]: 0.6477 | Array Heatmap signal, CHD5 (PPCC) [21, 63]: 0.5322 | Array Heatmap signal, PHF8 [22, 63]: 0.366 | Array Heatmap signal, CHD4 (PPCC) [23, 63]: 0.5563 | Array Heatmap signal, DIDO1 [24, 63]: 0.658 | Array Heatmap signal, CHD5 (PCC) [25, 63]: 0.8391 | Array Heatmap signal, PHF2 [26, 63]: 0.5334 | Array Heatmap signal, MLL5 [27, 63]: 0.57 | Array Heatmap signal, TAF3 [28, 63]: 0.2692 | Array Heatmap signal, PHF23 [29, 63]: 0.5406 | Array Heatmap signal, PHRF1 (RP) [30, 63]: 0.8507 | Array Heatmap signal, ING3 [31, 63]: 0.4651

H3 (1-32): H3 1-32
Array Heatmap signal, PHF21A [1, 32]: 0.4399 | Array Heatmap signal, ING4 [2, 33]: 0.4381 | Array Heatmap signal, ING5 [3, 34]: 0.344 | Array Heatmap signal, ING2 [4, 35]: 0.5998 | Array Heatmap signal, BPTF (PB) [5, 36]: 0.3386 | Array Heatmap signal, TRIM66 (PB) [6, 37]: 0.7057 | Array Heatmap signal, BAZ2B [7, 38]: 0.4644 | Array Heatmap signal, KDM7A [8, 39]: 0.308 | Array Heatmap signal, AIRE (PP) [9, 40]: 0.4331 | Array Heatmap signal, DPF2 (PPC2W2) [10, 41]: 0.6414 | Array Heatmap signal, PHF13 [11, 42]: 0.5781 | Array Heatmap signal, KDM4C (TTP) [12, 43]: 0.4465 | Array Heatmap signal, RAG2 [13, 44]: 0.2569 | Array Heatmap signal, KDM5B (3) [14, 45]: 0.4939 | Array Heatmap signal, ING1 [15, 46]: 0.5053 | Array Heatmap signal, SP140L [16, 47]: 0.3492 | Array Heatmap signal, MORC3 (CW) [17, 48]: 0.4518 | Array Heatmap signal, KDM5A (1) [18, 49]: 0.4672 | Array Heatmap signal, KDM5B (1) [19, 50]: 0.6889 | Array Heatmap signal, KDM5A (3) [20, 51]: 0.5232 | Array Heatmap signal, CHD5 (PPCC) [21, 52]: 0.5395 | Array Heatmap signal, PHF8 [22, 53]: 0.3413 | Array Heatmap signal, CHD4 (PPCC) [23, 54]: 0.5584 | Array Heatmap signal, DIDO1 [24, 55]: 0.6427 | Array Heatmap signal, CHD5 (PCC) [25, 56]: 0.752 | Array Heatmap signal, PHF2 [26, 57]: 0.514 | Array Heatmap signal, MLL5 [27, 58]: 0.5257 | Array Heatmap signal, TAF3 [28, 59]: 0.2681 | Array Heatmap signal, PHF23 [29, 60]: 0.5255 | Array Heatmap signal, PHRF1 (RP) [30, 61]: 0.6359 | Array Heatmap signal, ING3 [31, 62]: 0.4534
